Type in all cases: biochemical
The target in one assay is PKR(wt) (Homo sapiens, UniProt P30613). Kind of assay: Luminescence Assay Protocol (Kinase Glo Plus), PKR(Wt/without FBP). The conditions noted are these: without FBP; for activation at 1.54 µM: compound 1.54 μM, read-out: I - AC50 LUM KGP woFBP % Fold @ 1.54 μM mean; for AC50: gmean, read-out: G - AC50 LUM KGP woFBP AC50 μM gmean; for Emax: highest % fold increase at any concentration, read-out: H - AC50 LUM KGP woFBP MAX % FOLD mean. How it is done: (§1) Example 47: PKR(Wt/without FBP), PKR(G332S/with FBP), PKR(R510Q/without FBP)
(§2) The phosphorylation of Adenosine-5′-diphosphate (ADP) by various mutants of PKR was determined by the Kinase Glo Plus Assay (Promega) in the presence or absence of FBP [D-Fructose-1,6-diphosphate; BOC Sciences, CAS: 81028-91-3] as follows. Unless otherwise indicated, all reagents were purchased from Sigma-Aldrich. All reagents were prepared in buffer containing 50 mM Tris-HCl, 100 mM KCl, 5 mM MgCl2, and 0.01% Triton X100, 0.03% BSA, and 1 mM DTT. Enzyme and PEP [Phospho(enol) pyruvic acid] were added at 2× to all wells of an assay-ready plate containing serial dilutions of test compounds or DMSO vehicle. Final enzyme concentrations for PKR(wt), PKR(R510Q), and PKR(G332S) were 0.8 nM, 0.8 nM, and 10 nM respectively. Final PEP concentration was 100 μM. The Enzyme/PEP mixture was incubated with compounds for 30 minutes at RT before the assay was initiated with the addition of 2×ADP [Adenosine-5′-diphosphate] and KinaseGloPlus. Final concentration of ADP was 100 μM. […] For assays containing FBP, that reagent is added at 30 μM upon reaction initiation. Reactions were allowed to progress for 45 minutes at RT until luminescence was recorded by the BMG PHERAstar FS Multilabel Reader. All compounds were tested in triplicate at concentrations ranging from 42.5 μM to 2.2 nM in 0.83% DMSO.
(§3) Luminescence values were converted to % Fold increase by normalizing to the average of the DMSO control and multiplying by 100. Max, min, slope and AC50 were determined by the standard four parameter fit algorithm of ActivityBase XE Runner. Compounds were evaluated with three parameters—AC50, MAX % Fold, and % Fold@1.54 μM (FIG. 1). The AC50 value for a compound is the concentration […] corresponding to the midway between the maximum and minimum values of the four parameter logistic curve fit (i.e., at which the % fold increase along the four parameter logistic curve fit is halfway between MAX % Fold and MIN % Fold (% Fold Midpoint)), MAX % Fold is the highest fold increase observed at any concentration of compound, and % Fold@1.54 μM is the fold increase at a compound concentration of 1.54 μM. The parameter % Fold@1.54 μM was selected to capture elements of both the AC50 and MAX % Fold and to provide a ranking based on both potency and effect. The compound concentration of 1.54 μM was chosen as one that can optimally differentiate the set of compounds based on the range of activities observed.
(§4) As set forth in Tables 6 and 7 below, AC50 values (columns A, D, G) are defined as follows: ≤0.1 μM (+++); >0.1 μM and ≤1.0 μM (++); >1.0 μM and ≤40 μM (+); >40 μM (0). Max % FOLD values (columns B, E, H) are defined as follows: ≤75% (+); >75% and ≤250% (++); >250% and ≤500% (+++). % Fold@1.54 μM values (columns C, F, I) are defined as follows: ≤75% (+); >75% and ≤250% (++); >250% and ≤500% (+++).
On the technique in general: Kinase-Glo reads ATP consumption through a luciferase reaction.

A further assay addresses PKR(R510Q) (Homo sapiens, UniProt P30613, R510Q). Kind of assay: Luminescence Assay Protocol (Kinase Glo Plus), PKR(R510Q/without FBP). The conditions noted are these: PKRR510Q, without FBP; for activation at 1.54 µM: compound 1.54 μM, read-out: F - AC50 LUM KGP woFBP % Fold @ 1.54 μM mean; for AC50: gmean, read-out: D - AC50 LUM KGP woFBP AC50 μM gmean; for Emax: read-out: E - AC50 LUM KGP woFBP MAX % FOLD mean. How it is done: as §1, §2, §3, §4

In the next assay the target is PKR(G332S) (Homo sapiens, UniProt P30613, G332S). Kind of assay: Luminescence Assay Protocol (Kinase Glo Plus), PKR(G332S/with FBP). The conditions noted are these: PKRG332S, with FBP, gmean; read-out: A - AC50 LUM KGP FBP AC50 μM gmean. The procedure:
as §1, §2, §3, §4

The mark [1] stands for this setting: highest % fold increase at any concentration.

What is called AC50 is the concentration giving half of the maximal activity seen.

Molecules are shown by their SMILES.

Chain of PKR(wt) (P30613 whole entry): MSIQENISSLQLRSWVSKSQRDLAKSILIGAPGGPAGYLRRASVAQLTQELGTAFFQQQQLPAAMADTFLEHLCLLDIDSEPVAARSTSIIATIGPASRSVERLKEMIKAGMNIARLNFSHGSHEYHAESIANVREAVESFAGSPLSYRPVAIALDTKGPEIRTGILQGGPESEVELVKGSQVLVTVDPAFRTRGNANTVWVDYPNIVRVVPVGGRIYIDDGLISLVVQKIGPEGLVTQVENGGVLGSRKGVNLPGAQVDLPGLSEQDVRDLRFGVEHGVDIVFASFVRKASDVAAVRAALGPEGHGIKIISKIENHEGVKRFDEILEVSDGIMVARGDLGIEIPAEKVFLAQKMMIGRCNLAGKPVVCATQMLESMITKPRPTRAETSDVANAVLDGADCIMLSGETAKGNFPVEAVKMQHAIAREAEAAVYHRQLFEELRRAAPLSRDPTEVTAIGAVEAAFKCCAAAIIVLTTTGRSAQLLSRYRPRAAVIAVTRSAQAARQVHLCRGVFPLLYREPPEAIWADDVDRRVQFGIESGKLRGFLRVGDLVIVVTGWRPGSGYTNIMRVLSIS
Chain of PKR(R510Q) (P30613 whole entry R510Q): as the sequence (P30613 whole entry) above, with R510Q counted along it
Chain of PKR(G332S) (P30613 whole entry G332S): as the sequence (P30613 whole entry) above, with G332S counted along it

Turning to `O=C([C@@H]1CCOC1)N1CC2=C(C1)CN(S(=O)(=O)c1ccc3occc3c1)C2` [Example 12, (R)-(5-(benzofuran-5-ylsulfonyl)-3,4,5,6-tetrahydropyrrolo[3,4-c]pyrrol-2(1H)-yl)(tetrahydrofuran-3-yl)methanone], at PKR(wt), the activation at 1.54 µM is 250 to 500%, the AC50 lay within 0.1 to 1 µM and the Emax lay in the range of 250 to 500%.
`C[C@@H](O)CC(=O)N1CC2=C(C1)CN(S(=O)(=O)c1ccc3occc3c1)C2` [Example 23, (R)-1-(5-(benzofuran-5-ylsulfonyl)-3,4,5,6-tetrahydropyrrolo[3,4-c]pyrrol-2(1H)-yl)-3-hydroxybutan-1-one]: at PKR(wt), the activation at 1.54 µM was 250 to 500%, the AC50 is 0.1 to 1 µM and the Emax fell in the range of 250 to 500%.
As to `COc1ccc(S(=O)(=O)N2CC3=C(CN(C(=O)CCO)C3)C2)cc1` [Example 40, 3-hydroxy-1-(5-((4-methoxyphenyl)sulfonyl)-3,4,5,6-tetrahydropyrrolo[3,4-c]pyrrol-2(1H)-yl)propan-1-one], on PKR(R510Q), the activation at 1.54 µM is 75 to 250% and the AC50 lay in the range of 1 to 40 µM. Further, the Emax at PKR(R510Q) (setting [1]) is 250 to 500%.
`CCC(CO)(CO)C(=O)N1CC2=C(C1)CN(S(=O)(=O)c1ccc3occc3c1)C2` [Example 11, 1-(5-(benzofuran-5-ylsulfonyl)-3,4,5,6-tetrahydropyrrolo[3,4-c]pyrrol-2(1H)-yl)-2,2-bis(hydroxymethyl)butan-1-one]: on PKR(wt), the activation at 1.54 µM was 75 to 250%, the AC50 lay within 0.1 to 1 µM and the Emax fell in the range of 250 to 500%.
As for `O=C(C(CO)c1ccccn1)N1CC2=C(C1)CN(S(=O)(=O)c1ccc(OC(F)F)cc1)C2` (single isomer, unassigned) [Example 42, (R or S)-1-(5-((4-(difluoromethoxy)phenyl)sulfonyl)-3,4,5,6-tetrahydropyrrolo[3,4-c]pyrrol-2(1H)-yl)-3-hydroxy-2-(pyridin-2-yl)propan-1-one], the AC50 on PKR(G332S) was no more than 0.1 µM.
As for `O=C([C@H]1CCOC1)N1CC2=C(C1)CN(S(=O)(=O)c1ccc3occc3c1)C2` [Example 13, (S)-(5-(benzofuran-5-ylsulfonyl)-3,4,5,6-tetrahydropyrrolo[3,4-c]pyrrol-2(1H)-yl)(tetrahydrofuran-3-yl)methanone], on PKR(wt), the activation at 1.54 µM was 75 to 250%, the AC50 fell in the range of 0.1 to 1 µM and the Emax lay in the range of 250 to 500%.
Regarding `COCC1(C(=O)N2CC3=C(C2)CN(S(=O)(=O)c2ccc4occc4c2)C3)CC1` [Example 17, (5-(benzofuran-5-ylsulfonyl)-3,4,5,6-tetrahydropyrrolo[3,4-c]pyrrol-2(1H)-yl)(1-(methoxymethyl)cyclopropyl)methanone], on PKR(wt), the activation at 1.54 µM was 75 to 250%, the AC50 lay in the range of 0.1 to 1 µM and the Emax lay within 75 to 250%.
With `C[C@H](O)CC(=O)N1CC2=C(C1)CN(S(=O)(=O)c1ccc3occc3c1)C2` [Example 24, (S)-1-(5-(benzofuran-5-ylsulfonyl)-3,4,5,6-tetrahydropyrrolo[3,4-c]pyrrol-2(1H)-yl)-3-hydroxybutan-1-one], at PKR(wt), the activation at 1.54 µM was in the range of 75 to 250%, the AC50 fell in the range of 0.1 to 1 µM and the Emax fell in the range of 250 to 500%.
As to `O=C(CCO)N1CC2=C(C1)CN(S(=O)(=O)c1ccc(OC(F)F)cc1)C2` [Example 54, 1-(5-((4-(difluoromethoxy)phenyl)sulfonyl)-3,4,5,6-tetrahydropyrrolo[3,4-c]pyrrol-2(1H)-yl)-3-hydroxypropan-1-one], at PKR(R510Q), the activation at 1.54 µM is 75 to 250% and the AC50 fell in the range of 1 to 40 µM. The Emax on PKR(R510Q) (setting [1]) is 250 to 500%. In addition, at PKR(wt), the activation at 1.54 µM fell in the range of 75 to 250%, the AC50 lay within 1 to 40 µM and the Emax was 250 to 500%.
For the compound `CC(CO)(CO)C(=O)N1CC2=C(C1)CN(S(=O)(=O)c1ccc3occc3c1)C2` [Example 10, 1-(5-(benzofuran-5-ylsulfonyl)-3,4,5,6-tetrahydropyrrolo[3,4-c]pyrrol-2(1H)-yl)-3-hydroxy-2-(hydroxymethyl)-2-methylpropan-1-one], on PKR(wt), the activation at 1.54 µM lay within 75 to 250%, the AC50 was no more than 0.1 µM and the Emax is 250 to 500%.
As to `O=C(C(CO)c1ccccc1)N1CC2=C(C1)CN(S(=O)(=O)c1ccc3occc3c1)C2` (stereo not shown) [Example 8, 1-(5-(benzofuran-5-ylsulfonyl)-3,4,5,6-tetrahydropyrrolo[3,4-c]pyrrol-2(1H)-yl)-3-hydroxy-2-phenylpropan-1-one], on PKR(wt), the activation at 1.54 µM lay within 250 to 500%, the concentration at half-maximal activity (AC50) was no more than 0.1 µM and the Emax was 250 to 500%.
Take `O=C(CCO)N1CC2=C(C1)CN(S(=O)(=O)c1ccc3occc3c1)C2` [Example 22, 1-(5-(benzofuran-5-ylsulfonyl)-3,4,5,6-tetrahydropyrrolo[3,4-c]pyrrol-2(1H)-yl)-3-hydroxypropan-1-one]: on PKR(wt), the activation at 1.54 µM is 250 to 500%, the AC50 was 0.1 to 1 µM and the Emax fell in the range of 250 to 500%.
Regarding `O=C(C(CO)c1ccccn1)N1CC2=C(C1)CN(S(=O)(=O)c1cnc3c(c1)OCCO3)C2` (single isomer, unassigned) [Example 4, (S or R)-1-(5-((2,3-dihydro-[1,4]dioxino[2,3-b]pyridin-7-yl)sulfonyl)-3,4,5,6-tetrahydropyrrolo[3,4-c]pyrrol-2(1H)-yl)-3-hydroxy-2-(pyridin-2-yl)propan-1-one], at PKR(R510Q), the activation at 1.54 µM was 75 to 250% and the AC50 was 1 to 40 µM. Moreover, the “E - AC50 LUM KGP woFBP MAX % FOLD mean” value on PKR(R510Q) (setting [1]) is “++ (>75% and ≤250% (++))”. On PKR(wt), the activation at 1.54 µM was 75 to 250%, the AC50 lay within 1 to 40 µM and the Emax was in the range of 75 to 250%.
For `CC(C)(O)CC(=O)N1CC2=C(C1)CN(S(=O)(=O)c1ccc3occc3c1)C2` [Example 25, 1-(5-(benzofuran-5-ylsulfonyl)-3,4,5,6-tetrahydropyrrolo[3,4-c]pyrrol-2(1H)-yl)-3-hydroxy-3-methylbutan-1-one], at PKR(wt), the activation at 1.54 µM was 75 to 250%, the AC50 was in the range of 0.1 to 1 µM and the Emax is 250 to 500%.
Take `Cc1nc2ccc(S(=O)(=O)N3CC4=C(CN(C(=O)C(C)(C)CO)C4)C3)cc2o1` [Example 21, 3-hydroxy-2,2-dimethyl-1-(5-((2-methylbenzo[d]oxazol-6-yl)sulfonyl)-3,4,5,6-tetrahydropyrrolo[3,4-c]pyrrol-2(1H)-yl)propan-1-one]: on PKR(wt), the activation at 1.54 µM was in the range of 75 to 250%, the AC50 fell in the range of 1 to 40 µM and the Emax is 75 to 250%.
Turning to `CC(C)(CO)C(=O)N1CC2=C(C1)CN(S(=O)(=O)c1ccc3occc3c1)C2` [Example 9, 1-(5-(benzofuran-5-ylsulfonyl)-3,4,5,6-tetrahydropyrrolo[3,4-c]pyrrol-2(1H)-yl)-3-hydroxy-2,2-dimethylpropan-1-one], on PKR(wt), the activation at 1.54 µM lay within 75 to 250%, the AC50 was no more than 0.1 µM and the Emax was in the range of 75 to 250%.

Source of the values: patent US11649242B2, “Pyrrolopyrrole compositions as pyruvate kinase (PKR) activators” (FORMA Therapeutics, Inc., priority 2017, dated 2023).
